One data set has as its target BACE1 (Homo sapiens, UniProt P56817). The experiment in a line: Determination of BACE1-inhibiting activity (fluorescence substrate cleavage). The conditions noted are these: compound 100 μM; BACE1 1.0 U/ml; substrate 750 nM Rh-EVNLDAEFK-Quencher; sodium acetate buffer pH 4.5; 25° C., 60 minutes; read-out: Inhibitory rate (%). It counts as biochemical. On the procedure: Determination of BACE1-Inhibiting Activity
A sodium acetate analytical buffer solution ([…], pH 4.5) containing BACE1 (1.0 U/ml), a substrate of BACE1 (750 nM Rh-EVNLDAEFK-Quencher), a compound of the present invention (100 μM) was incubated at 25° C. for 60 minutes. The fluorescence intensity was determined by using a TECANGENios fluorimeter with a slit width of 10 nm, an excitation wavelength of 535 nm and an emission wavelength of 585 nm. Inhibitory rate(%)={1−[(S−S0)/(C−C0)]}*100%
C: the fluorescence intensity of the control (BACE1, substrate and analytical buffer solution) as determined after incubating for 60 minutes.
C0: the fluorescence intensity of the control (BACE1, substrate and analytical buffer solution) as determined after incubating for 0 minute.
S: the fluorescence intensity of the sample (BACE1, substrate, compound of the present invention and analytical buffer solution) as determined after incubating for 60 minutes.
S0: the fluorescence intensity of the sample (BACE1, substrate, compound of the present invention and analytical buffer solution) as determined after incubating for 0 minute.

BACE1, sequence (P56817 46-501): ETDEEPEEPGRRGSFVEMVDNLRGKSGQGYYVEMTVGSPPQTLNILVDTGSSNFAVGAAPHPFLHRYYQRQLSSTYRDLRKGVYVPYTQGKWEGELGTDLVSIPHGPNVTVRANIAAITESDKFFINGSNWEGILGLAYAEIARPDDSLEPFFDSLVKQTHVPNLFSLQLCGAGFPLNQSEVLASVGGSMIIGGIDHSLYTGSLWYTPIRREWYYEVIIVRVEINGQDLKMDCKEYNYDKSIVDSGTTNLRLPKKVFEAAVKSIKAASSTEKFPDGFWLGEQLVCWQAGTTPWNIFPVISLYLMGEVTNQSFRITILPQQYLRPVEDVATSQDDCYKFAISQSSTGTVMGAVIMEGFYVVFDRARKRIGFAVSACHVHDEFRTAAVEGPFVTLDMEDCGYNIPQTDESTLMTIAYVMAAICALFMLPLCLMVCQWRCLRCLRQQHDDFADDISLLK

Consider `COC(=O)CCCNC(=O)[C@H](OC(C)=O)[C@@H](OC(C)=O)C(=O)Nc1ccc(Oc2ccccc2)cc1` [Example 3, methyl L-(2R,3R)-4-[2,3-diacetoxy-3-(4-phenoxy-phenylcarbamoyl)-propionylamino]-butyrate], for which the inhibition at 100 µM at BACE1 turned out to be 39%.
The same measure, in the same setting: the value for `COC(=O)c1ccc(CNC(=O)[C@H](O)[C@@H](O)C(=O)Nc2ccc3ccccc3c2)cc1` [Example 17, methyl L-(2R,3R)-4-{[2,3-dihydroxy-3-(naphthyl-2-carbamoyl)-propionylamino]methyl}-benzoate] was 45.3%.
For the molecule `COC(=O)C1CCC(CNC(=O)[C@H](O)[C@@H](O)C(=O)NCc2ccccc2)CC1` (stereo partly drawn) [Example 11, methyl L-(2R,3R)-4-(3-benzylcarbamoyl-2,3-dihydroxy-propionylaminomethyl)-cyclohexanecarboxylate], the melting point was 153 to 154 °C.
Molecule `O=C(O)[C@H](Cc1ccccc1)NC(=O)[C@H](O)[C@@H](O)C(=O)NCc1ccccc1` [Example 10, L-(2R,3R)-2-(3-benzylcarbamoyl-2,3-dihydroxy-propionylamino)-3-phenyl-propionic acid] yielded a melting point of 236 to 238 °C.
In the case of `COC(=O)C1CCC(CNC(=O)[C@H](O)[C@@H](O)C(=O)Nc2ccc3ccccc3c2)CC1` (stereo partly drawn) [Example 18, methyl L-(2R,3R)-4-{[2,3-dihydroxy-3-(naphthyl-2-carbamoyl)-propionylamino]methyl}-cyclohexanecarboxylate], the inhibition at 100 µM at BACE1 is 22.3%.
`COC(=O)c1ccc(CNC(=O)[C@H](O)[C@@H](O)C(=O)NCc2ccccc2)cc1` [Example 8, methyl L-(2R,3R)-4-[(3-benzylcarbamoyl-2,3-dihydroxy-propionylamino)methyl]-benzoate] had a melting point of 205 to 206 °C.
The same measure, in the same setting: the result for `COC(=O)CCCNC(=O)[C@H](O)[C@@H](O)C(=O)NCc1ccccc1` [Example 13, methyl L-(2R,3R)-4-(3-benzylcarbamoyl-2,3-dihydroxy-propionylamino)-butyrate] reads 142 to 145 °C; that for `O=C(O)C1CCC(CNC(=O)[C@H](O)[C@@H](O)C(=O)NCc2ccccc2)CC1` (stereo partly drawn) [Example 15, L-(2R,3R)-4-[(3-benzylcarbamoyl-2,3-dihydroxy-propionylamino)methyl]-cyclohexanecarboxylic acid], 236 to 238 °C.
Molecule `O=C(O)CCCNC(=O)[C@H](O)[C@@H](O)C(=O)NCc1ccccc1` [Example 14, L-(2R,3R)-4-(3-benzylcarbamoyl-2,3-dihydroxy-propionylamino)-butyric acid] had a melting point of 169 to 170 °C. The inhibition at 100 µM on BACE1 turned out to be 22.5%.
As for `COC(=O)[C@H](Cc1ccccc1)NC(=O)[C@H](O)[C@@H](O)C(=O)Nc1ccc2ccccc2c1` [Example 19, methyl L-(2R,3R)-2-[2,3-dihydroxy-3-(naphthalen-2-ylcarbamoyl)-propionylamino]-3-phenyl-propionate], the inhibition at 100 µM on BACE1 was 35%.
Turning to `COC(=O)c1cc(NC(=O)[C@H](O)[C@@H](O)C(=O)NCc2ccccc2)cc(C(=O)OC)c1` [Example 16, dimethyl L-(2R,3R)-5-(3-benzylcarbamoyl-2,3-dihydroxy-propionylamino)-isophthalate], the inhibition at 100 µM at BACE1 turned out to be 26.5%.
Take `O=C(O)c1ccc(CNC(=O)[C@H](O)[C@@H](O)C(=O)NCc2ccccc2)cc1` [Example 12, L-(2R,3R)-4-[(3-benzylcarbamoyl-2,3-dihydroxy-propionylamino)methyl]-benzoic acid]: the melting point was 177 to 178 °C.

For the origin of these results see US8268884B2, “Derivatives of substituted tartaric acid and usage for preparing beta-secretase inhibitors” (Institute of Pharmacology and Toxicology Academy of …, priority 2006, dated 2012).
